Experiments:
[1] = tested on: HeLa (cervix epithelioid carcinoma); assay: Antiproliferative activity against HeLa (XTT colorimetric method); format: cell-based; details: Homo sapiens, 72 h treatment
Outline: (§1)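 XTT read-out at 450 nm after 4 h labelling; cells seeded, allowed 24 h to attach, then exposed 72 h to compound, screened at 1 µM and, if active, titrated 10^−5 to 10^−10 M. IC50 relative to untreated controls by non-linear fit; DMSO ≤0.5%; triplicate, three experiments.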

[2] = tested on: MCF7 (breast adenocarcinoma); assay: Antiproliferative activity against MCF7 (XTT colorimetric method); format: cell-based; details: Homo sapiens, 72 h treatment
Outline: as §1

[3] = tested on: HT-29 (colon adenocarcinoma); assay: Antiproliferative activity against CA-4-resistant HT-29 with or without verapamil (sensitivity to MDR pumps, XTT); format: cell-based, human; details: Homo sapiens, HT-29; 72 h, XTT, without verapamil; read-out: Antiproliferative Activity IC50 HT-29
Outline: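 HT-29 cells (3·10^4 cells/mL) were attached 24 h, then exposed to compounds, with or without 10 µM verapamil, for 72 h; final DMSO ≤0.5% (v/v). Proliferation read by XTT/PMS, 6 h, absorbance 450 nm; IC50 from non-linear curve fitting.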

Measured: IC50

COc1cc(N(CC(=O)O)S(=O)(=O)c2ccc(N(C)C)cc2)cc(OC)c1OC [Compound 34]
> 1000 nM: [1] | [2] | [3]

Reference: paper PMC7918738, “Microtubule Destabilizing Sulfonamides as an Alternative to Taxane-Based Chemotherapy” (International Journal of Molecular Sciences, 2021)
